Experiments:
U-251SP cells = test: In vitro bystander tumoricidal effect, coculture of transduced and non-transduced cells; type: cell-based, human; conditions: 4.5 μg/mL ganciclovir, 3 days
Method: FIG. 3 depicts the in vitro cytocidal bystander effect observed in non-transduced cells that were cultured with HSV-tk transduced cells as described in Example 3. Cell co-cultures containing a total of 1×10^4 cells were formed by combining cells that were transduced with rAAVtk-IRES-hIL2 virions at the following ratios: 1:0, 1:1, 1:10, 1:100 and 0:1 (transduced:nontransduced cells). After a 24 hour incubation, the co-cultures were exposed to 4.5 μg/mL of ganciclovir and allowed to incubate for an additional 3 days. Numbers of living cells were counted using the trypan blue dye exclusion method. The Figure indicates % cell survival compared to the cultures containing only non-transduced cells (0:1). The data is presented a mean +/− a standard error deviation based on duplicate experiments.
In order to assess the in vitro bystander tumoricidal effect of HSV-tk transduced cells on neighboring non-transduced cells, the following study was carried out. U-251SP cells were incubated for 12 hours in DMEM medium containing rAAVtk-IRES-hIL2 virions at a MOI of 1.9×10^6. Since this MOI was greater than the MOI determined necessary for 100% transduction by the rAAVlacZ virions (e.g., 3×10^5 as determined above in Example 1), the incubated cells were considered to be 100% transduced. The rAAVtk-IRES-hIL2 transduced cells were cocultured with non-transduced U-251SP cells at ratios of 1:0, 1:1, 1:10, 1:100 and 0:1 (transduced:nontransduced cells) to provide 1×10^4 total cells per well in a 24 well tissue culture plate. 24 hours after the coculture was initiated, 4.5 μg/mL of ganciclovir (DENOSINE® Roche, Basel, Switzerland) was added to each well in fresh media. After 3 days, the numbers of living cells were determined using the trypan blue dye exclusion method.

[1] = 3 patients; cited from earlier work
[2] = tested on: human U-251SP glioma cells; test: In vitro sensitivity of rAAVtk-IRES-hIL2-transduced cells to ganciclovir; type: cell-based
Method: More particularly, transduced cells were exposed to varying amounts of GCV to assess their sensitivity to the pro-drug. In the study 1×10^4 human U-251SP glioma cells were incubated for 12 hours with rAAVtk-IRES-hIL2 at MOIs of 0, 3×10^2, 3×10^3, 3×10^4, 3×10^5, and 3×10^6. The transduced cells were then incubated for an additional 72 hours in fresh medium containing serial dilutions of GCV at a final concentration of from 0.1-100 μg/mL.
In order to determine if cells transduced with the HSV-tk gene had enhanced susceptibility to the cytocidal effects of GCV, the following study was carried out. Recombinant AAV virion-transduced cells were exposed to varying amounts of GCV to assess their sensitivity to the drug. Particularly, 1×10^4 human U-251SP glioma cells/well (cultured in 200 μL of complete medium) were incubated with various concentrations of rAAVtk-IRES-hIL2 (at MOIs of 0, 3×10^2, 3×10^3, 3×10^4, 3×10^5, and 3×10^6) for 12 hours. The transduced cells were then incubated for an additional 72 hours in fresh medium containing serial dilutions of GCV at a final concentration of from 0.1-100 μg/mL. The numbers of living cells were then determined using the trypan blue dye exclusion method, and compared with those of nontransduced cells cultured without GCV treatment.

Nc1nc(O)c2ncn(COC(CO)CO)c2n1 [GCV, ganciclovir]
tumoricidal effect compared with only non-transduced cells (0:1) (U-251SP cells; 1% rAAVtk-IRES-hIL2-transduced cells (1:100)): 15.1%
tumoricidal effect compared with only non-transduced cells (0:1) (U-251SP cells; 10% rAAVtk-IRES-hIL2-transduced cells (1:10)): 58.1%
sensitivity to GCV killing (U-251SP cells; 50% rAAVtk-IRES-hIL2-transduced cells (1:1)): as sensitive to GCV killing as were cultures containing 100% transduced cells
concentration in the CSF [1]: 310 to 680 ng/mL
concentration in the plasma [1]: 440 to 2200 ng/mL
inhibition ([2]; 4.5 μg/mL of GCV, rAAVtk-IRES-hIL2 at a MOI of 3×10^3): more than 80%
IC50 ([2]; Homo sapiens, Glioma cell, GCV 72 hours, cells exposed to rAAVtk-IRES-hIL2 at a MOI of 3×10^3 or greater, read-out: TCID50): < 0.28 µg/mL
effect on cell growth ([2]; high doses of GCV, non-transduced cells): mild inhibitory effect

Source: patent publication US6531456B1, “Gene therapy for the treatment of solid tumors using recombinant adeno-associated virus vectors” (Avigen, Inc., priority 1996, dated 2003)
